Measured values as given in US9023845B2, “Compositions and methods for treating lysosomal disorders” (priority 2007, dated 2015).
“Also recorded” adds a separate entry of the source.

Legend:
[1] = tested on: Gaucher and/or Fabry B-cell lines; assay: Effect on cultured cell GSLs (TLC, orcinol detection); assay type: cell-based; details: 3 days, GSL fractions by TLC/orcinol
Fabry mice [2] = details: mouse, in vivo
Fabry mice [3] = details: mouse, in vivo, ip

## CCOC/C=C/c1ccc(-c2nc(-c3ccc(NC(C)C)cc3)c(-c3ccc(NC(C)C)cc3)[nH]2)cc1 [Formula 2]
[1]; 4 μM
  Gb3 levels: decrease
  LacCer and GlcCer levels: increased
[1]; 8 μM
  complex GSL levels: significant reduced
Fabry mice [2]
  heart Gb3 staining (VT1): effective in reducing heart Gb3 staining
  liver Gb3 staining (VT1): essentially no residual staining for Gb3 within the liver; also recorded: considerably less than in the control group; also recorded: more effective in reducing liver Gb3 staining as compared to mice treated with cyclosporine; also recorded: essentially removed Gb3 from the liver Kupffer cells
Fabry mice [3]
  VT1 staining: decreased VT1 staining
  levels of GlcCer and/or LacCer: increased levels
  levels of complex GSLs such as Gb3: lower levels
